Data taken from patent US6576261B1, “Potentiation of inclusion complex formation of cyclodextrin derivatives” (priority 1999, dated 2003).
≈ marks a conversion by molar mass, not a printed value.

Key:
[1] = Solubilization of choline and sodium salts of FTS and other acidic drugs by cyclodextrins
Experimental: The solid obtained thereby was heated on a boiling water bath.
In this procedure, FTS (10 mg, 28 micromoles) was dissolved with warming in ethanol (20 microliters) and an aqueous solution of sodium hydroxide (30 microliters of 1 M NaOH carbonate free, i.e., 30 micromoles) was added. […] This clear solution then was added to the solution of Pitha methyl derivative (100 mg) in isotonic phosphate buffered saline (1 ml, pH 7.4).
In these investigations, choline salts were prepared by extraction with organic solvents of mixtures of sodium salts of the anion in question and choline chloride. There mixtures were either solid or in aqueous solutions.

[2] = Solubilization of additional guests by two different hosts; assay type: physicochemical; settings: for solubility at 1 week: water containing solubilising hosts, aqueous with cosolvent or surfactant or cyclodextrin, thermodynamic from solid
From the text: Techniques were as described in Example 1 and water was used as a solvent. As shown in Table for Example 4, complexes of two hosts increased the solubility of retinoic acid and taxol compared to the solubility obtained with individual hosts.

physchem = experiment: physchem
From the text: A slight excess of FTS was equilibrated with water containing one host at 5% concentration or two hosts, each at 5% concentration, by rotation for a week. The suspension was then filtered through a millipore filter and the concentration of FTS in filtrate determined by ultraviolet spectrophotometry. […] The cooperativity index reflects the improvement in solubility obtained with each combination of two hosts over the solubility obtained with each of the individual hosts involved in the two-host system. It is computed by dividing the obtained solubility with two hosts by the sum of the individual solubilities obtained with each component.

[3] = Solubilization of FTS by two different hosts in water (equilibration for a week, filtration, UV spectrophotometry); assay type: physicochemical; settings: for solubility at 1 week: aqueous host solution, aqueous with cosolvent or surfactant or cyclodextrin, thermodynamic from solid
Experimental: (§1) no enhancement with two hosts. Water was used as the solvent for all data in the Table for Example 1. When a sodium carbonate based buffer of pH 10 was used as a solvent (conditions in which FTS is converted to its salt), the solubility of FTS in TRIMEA combined with DIMEB or in TRIMEA combined with Pitha methyl derivatives exceeds 60 mg per ml. Cooperativity, in this case, could not be calculated since, in these conditions, even solubilization by one component alone (DIMEB or Pitha methyl derivative) was over 60 mg per ml.

[4] = Solubilization of FTS by hosts in sodium carbonate based buffer of pH 10; assay type: physicochemical
Experimental: as §1

[5] = Solubilization of FTS by TRIMEA and DIMEB: continuous variation and concentration dependence; assay type: physicochemical; settings: water
From the text: The optimum ratio of hosts was established by the continuous variation method, using techniques of Example 1 and water as a solvent. The results in Table A for Example 3 indicate that the optimum solubility is obtained when both hosts are in about equal concentrations. […]

[6] = as above; assay type: physicochemical
[7] = host combination TRIMEA - DIMEB, water
[8] = host combination TRIMEA - Pitha Methyl 258, water
[9] = host combination TRIMEA - RAMEB, water
[10] = host combination TRIMEA - TRIMEB, water
[11] = hosts Alpha Cyclodextrin - DIMEB, each 5% in water
[12] = hosts Alpha Cyclodextrin - TRIMEB, each 5% in water
[13] = hosts Beta Cyclodextrin - TRIMEB, each 5% in water
[14] = hosts DIMEB - PERM HPBCD, each 5% in water
[15] = hosts DIMEB - TRIMEB, each 5% in water
[16] = hosts DIMEB - TRIMEG, each 5% in water
[17] = hosts G2 - DIMEB, each 5% in water
[18] = hosts G2 - TRIMEB, each 5% in water
[19] = hosts G2 - TRIMEG, each 5% in water
[20] = hosts HPACD - HPBCD, each 5% in water
[21] = hosts Pitha Methyl 258 - TRIMEB, each 5% in water
[22] = hosts Pitha Methyl 322 - DIMEB, each 5% in water
[23] = hosts TRIMEA - DIMEB, each 5% in water
[24] = hosts TRIMEA - G2, each 5% in water
[25] = hosts TRIMEA - Pitha Methyl 258, each 5% in water
[26] = host combination DIMEB - TRIMEB (first line, r7), water
[27] = host combination DIMEB - TRIMEB (printed a second time, r8), water

SMILES: Nc1ccc(S(=O)(=O)Nc2ncccn2)cc1 [sulfadiazine]
- solubilization of choline salts [1]: easily solubilized

SMILES: CC(=O)O[C@H]1C(=O)[C@@]2(C)[C@H]([C@H](OC(=O)c3ccccc3)[C@]3(O)C[C@H](OC(=O)[C@H](O)[C@@H](NC(=O)c4ccccc4)c4ccccc4)C(C)=C1C3(C)C)[C@]1(OC(C)=O)CO[C@@H]1C[C@@H]2O [Taxol]
- Cooperativity [2, 7]: 1.49
- solubility at 1 week [2, 7]: 1000 µg/mL
- Solubility (physchem; 1 week): 380 µg/mL
- solubility at 1 week (physchem; aqueous with cosolvent or surfactant or cyclodextrin, thermodynamic from solid, Solubility): 290 µg/mL

SMILES: CC1=C(/C=C/C(C)=C/C=C/C(C)=C/C(=O)O)C(C)(C)CCC1 [Retinoic Acid]
- Cooperativity [2, 7]: 1.45
- Cooperativity [2, 8]: 1.13
- Cooperativity [2, 9]: 1.08
- Cooperativity [2, 10]: 0.7
- solubility at 1 week [2, 7]: 71 µg/mL
- solubility at 1 week [2, 8]: 52 µg/mL
- solubility at 1 week [2, 9]: 56 µg/mL
- solubility at 1 week [2, 10]: 12 µg/mL
- single, highly methylated cyclodextrin host outperformed the current standard (physchem; 1 week): 2.5 times

SMILES: CN1C(C(=O)Nc2ccccn2)=C(O)c2ccccc2S1(=O)=O [piroxicam]
- solubilization of choline salts [1]: easily solubilized

SMILES: Cc1ccc(C(=O)Nc2ccc(S(=O)(=O)O)c3cc(S(=O)(=O)O)cc(S(=O)(=O)O)c23)cc1NC(=O)c1cccc(NC(=O)Nc2cccc(C(=O)Nc3cc(C(=O)Nc4ccc(S(=O)(=O)O)c5cc(S(=O)(=O)O)cc(S(=O)(=O)O)c45)ccc3C)c2)c1 [suramin]
- solubilization of choline salts [1]: easily solubilized

SMILES: O=C(O)c1ccccc1O [salicylic acid]
- solubilization of choline salts [1]: easily solubilized

SMILES: COc1ccc2c(c1)c(CC(=O)O)c(C)n2C(=O)c1ccc(Cl)cc1 [indomethacin]
- solubilization of choline salts [1]: easily solubilized

SMILES: CC(C)Cc1ccc(C(C)C(=O)O)cc1 (stereo not shown) [ibuprofen]
- solubilization of choline salts [1]: easily solubilized

SMILES: CC(C)=CCCC(C)=CCCC(C)=CCSc1ccccc1C(=O)O [FTS, S-farnesylthiosalicylic acid]
- solubility at 1 week [3, 11]: 1400 µg/mL (≈ 3.9 mM)
- solubility at 1 week [3, 12]: 100 µg/mL (≈ 0.279 mM)
- solubility at 1 week [3, 13]: 26 µg/mL (≈ 0.0725 mM)
- solubility at 1 week [3, 14]: 1100 µg/mL (≈ 3.07 mM)
- solubility at 1 week [3, 15]: 2600 µg/mL (≈ 7.25 mM)
- solubility at 1 week [3, 16]: 1400 µg/mL (≈ 3.9 mM)
- solubility at 1 week [3, 17]: 2400 µg/mL (≈ 6.69 mM)
- solubility at 1 week [3, 18]: 1100 µg/mL (≈ 3.07 mM)
- solubility at 1 week [3, 19]: 1000 µg/mL (≈ 2.79 mM)
- solubility at 1 week [3, 20]: 52 µg/mL (≈ 0.145 mM)
- solubility at 1 week [3, 21]: 950 µg/mL (≈ 2.65 mM)
- solubility at 1 week [3, 22]: 1300 µg/mL (≈ 3.63 mM)
- solubility at 1 week [3, 23]: 6600 µg/mL (≈ 18.4 mM)
- solubility at 1 week [3, 24]: 3900 µg/mL (≈ 10.9 mM)
- solubility at 1 week [3, 25]: 5700 µg/mL (≈ 15.9 mM)
- Cooperativity (observed ÷ Σ components) [3, 11]: 1.0
- Cooperativity (observed ÷ Σ components) [3, 12]: 0.6
- Cooperativity (observed ÷ Σ components) [3, 13]: 0.2
- Cooperativity (observed ÷ Σ components) [3, 14]: 0.8
- Cooperativity (observed ÷ Σ components) [3, 15]: 1.8
- Cooperativity (observed ÷ Σ components) [3, 16]: 1.0
- Cooperativity (observed ÷ Σ components) [3, 17]: 1.0
- Cooperativity (observed ÷ Σ components) [3, 18]: 1.0
- Cooperativity (observed ÷ Σ components) [3, 19]: 1.0
- Cooperativity (observed ÷ Σ components) [3, 20]: 0.3
- Cooperativity (observed ÷ Σ components) [3, 21]: 1.4
- Cooperativity (observed ÷ Σ components) [3, 22]: 0.7
- Cooperativity (observed ÷ Σ components) [3, 23]: 4.1
- Cooperativity (observed ÷ Σ components) [3, 24]: 3.0
- Cooperativity (observed ÷ Σ components) [3, 25]: 9.4
- solubility of FTS ([4]; TRIMEA combined with DIMEB, sodium carbonate based buffer of pH 10 (FTS converted to its salt)): exceeds 60 mg per ml
- solubility of FTS ([4]; TRIMEA combined with Pitha methyl derivatives, sodium carbonate based buffer of pH 10): exceeds 60 mg per ml
- FTS ([5]; TRIMEA 0 % w/w, DIMEB 5 % w/w): 1.55 mg/mL
- FTS ([5]; TRIMEA 1 % w/w, DIMEB 4 % w/w): 2.29 mg/mL
- FTS ([5]; TRIMEA 2 % w/w, DIMEB 3 % w/w): 2.66 mg/mL
- FTS ([5]; TRIMEA 3 % w/w, DIMEB 2 % w/w): 2.79 mg/mL
- FTS ([5]; TRIMEA 4 % w/w, DIMEB 1 % w/w): 2.33 mg/mL
- FTS ([5]; TRIMEA 5 % w/w, DIMEB 0 % w/w): 0.19 mg/mL
- single, highly methylated cyclodextrin host outperformed the current standard (physchem; 1 week): over 2 times
- solubilization of choline salts [1]: easily solubilized
- FTS ([6]; TRIMEA 2 % w/w, DIMEB 2 % w/w): 2.13 mg/mL
- FTS ([6]; TRIMEA 5 % w/w, DIMEB 5 % w/w): 8.53 mg/mL
- FTS ([6]; TRIMEA 10 % w/w, DIMEB 10 % w/w): 15.86 mg/mL
- FTS (mg/ml) ([6]; TRIMEA 15 % w/w, DIMEB 15 % w/w): (>than 17.17, all dissolved) mg/ml

SMILES: C[C@@H]1[C@H](O)[C@@H](C)/C=C/C=C/C=C/C=C/C=C/C=C/C=C/[C@H](O[C@@H]2O[C@H](C)[C@@H](O)[C@H](N)[C@@H]2O)C[C@@H]2O[C@](O)(C[C@@H](O)C[C@@H](O)[C@H](O)CC[C@@H](O)C[C@@H](O)CC(=O)O[C@H]1C)C[C@H](O)[C@H]2C(=O)O [Amphotericin B]
- Cooperativity [2, 26]: 0.7
- Solubility [2, 26]: 131 µg/mL
- Cooperativity [2, 27]: 0.9
- Solubility [2, 27]: 158 µg/mL
- Cooperativity [2, 7]: 0.9
- Solubility [2, 7]: 185 µg/mL
- solubilization of choline salts [1]: easily solubilized

SMILES: CC(C)=CCC/C(C)=C/CC/C(C)=C/CSc1ccccc1C(=O)[O-].C[N+](C)(C)CCO [choline salt of FTS]
- precipitate formation upon acidification ([1]; cyclodextrin-solubilized salts): less prone to form precipitate upon acidification than sodium salts
- pH of solution ([1]; powder of choline salt of FTS with methylated beta-cyclodextrin dissolved in water, paper strip indicator): 6.5
- dissolution of the powder in water ([1]; solid powder of choline salt of FTS with methylated beta-cyclodextrin): dissolved easily and fully in water
